Laboratory results published in US7643943B2, “Methods for monitoring drug activities in vivo” (Wyeth LLC, priority 2003, dated 2010).

What was measured:
[1] = Pharmacokinetics of CCI-779 in patients with cancer following intravenous administration; details: human, whole blood
Source text: The pharmacokinetics of CCI-779 is being studied in patients with cancer receiving CCI-779 either alone or in combination with other chemotherapeutic agents following intravenous administration. Intravenous dosage schedules previously investigated include a cyclical schedule (daily for 5 days every two weeks) and a once-weekly regimen. […] The following examples evaluated the safety, efficacy, and pharmacokinetic/pharmacodynamic relationship to clinical response of three doses of CCI-779, when administered to patients with advanced, refractory renal cell cancer (RCC).

[2] = CCI-779 final population model, whole blood, RCC patients
[3] = CCI-779 model, 1,000 bootstrap sample runs
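Wherever Inter-Patient Variability % on CL is given: population pharmacokinetic analysis in NONMEM of pooled full and sparse blood sampling from patients, exponential error on kinetic parameters, proportional residual error, bootstrap check over 1,000 resamples.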
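Wherever Inter-Patient Variability % on V2 is given: population pharmacokinetic analysis in NONMEM of pooled full and sparse blood sampling from patients, exponential error on kinetic parameters, proportional residual error, bootstrap check over 1,000 resamples.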
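Wherever Inter-Patient Variability % on V3 is given: population pharmacokinetic analysis in NONMEM of pooled full and sparse blood sampling from patients, exponential error on kinetic parameters, proportional residual error, bootstrap check over 1,000 resamples.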
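Wherever Intersubject variability on CL (ω^21), final model parameter estimate is given: population pharmacokinetic analysis in NONMEM of pooled full and sparse blood sampling from patients, exponential error on kinetic parameters, proportional residual error, bootstrap check over 1,000 resamples.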

half-life [1]: ~14 h | clearance ([1]; 25 mg): ~333 mL/min | clearance ([1]; 250 mg): ~1670 mL/min | Inter-Patient Variability % on CL (CCI-779 final population model): 23.7% | Inter-Patient Variability % on V2 (CCI-779 final population model): 44.1% | Inter-Patient Variability % on V3 (CCI-779 final population model): 129% | Intersubject variability on CL (ω^21), final model parameter estimate (CCI-779 final population model): 0.056 | Intersubject variability on V2 (ω^22), final model parameter estimate (CCI-779 final population model): 0.194 | Intersubject variability on V3 (ω^23), final model parameter estimate (CCI-779 final population model): 1.67 | Proportional error (ε^2), final model parameter estimate (CCI-779 final population model): 0.157 | V1 (θ2), parameter estimate [2]: 37.6 L | V2 (θ4), parameter estimate [2]: 271 L | V3 (θ6), parameter estimate [2]: 323 L | Q2 (θ3), parameter estimate (CCI-779 final population model, TVQ2=6.48*DOSE^0.551): 6.48 L/h | Q3 (θ5), parameter estimate (CCI-779 final population model, TVQ3=0.258*DOSE^0.551): 0.258 L/h | INTR, inter-period variability on CL (θ8), parameter estimate (CCI-779 final population model, factor for multiple doses (DNUM=1)): 0.103 | Inter-period variability on CL (θ8), bootstrap sample median [3]: 0.110 | Intersubject variability on CL (ω^21), bootstrap sample median [3]: 0.215 | Intersubject variability on V2 (ω^22), bootstrap sample median [3]: 0.414 | Intersubject variability on V3 (ω^23), bootstrap sample median [3]: 1.08 | Proportional error (ε^2), bootstrap sample median [3]: 0.383 | Q2 (θ3), bootstrap sample median [3]: 6.46 L/h | Q3 (θ5), bootstrap sample median [3]: 0.267 L/h | V1 (θ2), bootstrap sample median [3]: 38.3 L | V2 (θ4), bootstrap sample median [3]: 275 L | V3 (θ6), bootstrap sample median [3]: 339 L | increase of clearance with BSA (for a given dose, patients with BSA values that range from 1.5 to 2 m^2): approximately 45%
Structure (SMILES): CO[C@H]1C[C@@H]2CC[C@@H](C)[C@@](O)(O2)C(=O)C(=O)N2CCCC[C@H]2C(=O)O[C@H]([C@H](C)C[C@@H]2CC[C@@H](OC(=O)C(C)(CO)CO)[C@H](OC)C2)CC(=O)[C@H](C)/C=C(\C)[C@@H](O)[C@@H](OC)C(=O)[C@H](C)C[C@H](C)/C=C/C=C/C=C/1C [CCI-779]
